Consider 3 compounds from patent publication US9415063B2, “Treatment of neurological disorders” (VELACOR THERAPEUTICS PTY LTD., priority 2007, dated 2016).

Data set [1] deals with cultured rat hippocampal slices (CA1 region). The experiment in a line: Hypoxia induced neurodegeneration in organotypic hippocampal slice cultures. Format: cell-based, Wistar rat. The note with it: 100 μM; compound present 24 hours pre-, during 3 hours of and 24 hours post-hypoxia; vs hypoxia alone. As to the method:
(§1) Wistar rat pups (8-11 days old) were decapitated and the hippocampus rapidly dissected into ice-cold Gey's balanced salt solution supplemented with 4.5 mg/mL glucose. Transverse sections (400 μm) were cut on a McIlwain tissue chopper and placed back into ice-cold Gey's balanced salt solution. Slices were separated and plated onto Millicell CM culture inserts (4 per well) and maintained at 37° C./5% CO2 for 14 days. Maintenance medium consists of 25% heat-inactivated horse serum, 25% Hank's balanced salt solution (HBSS) and 50% minimum essential medium with added Earle's salts (MEM), supplemented with 1 mM glutamine and 4.5 mg/mL glucose. Medium was changed every 3-4 days.
PI fluorescence was detected using a Leica DMIL inverted microscope fitted with a rhodamine filter set. […]
Neuronal damage was assessed using ImageJ software running on a PC. […] Light transmission images were captured prior to the addition of drugs, and PI fluorescence images recorded at the end of the 24-hour recovery period. The area of the CA1 region was then determined from the transmission image. The area of PI fluorescence in the CA1 is measured using the threshold function on ImageJ, and neuronal damage expressed as the percentage of the CA1 in which PI fluorescence is detected above background (Pringle et al., 1997).

For data set [2] the test system is unchanged. Description: Ischaemia (oxygen glucose deprivation) induced neurodegeneration in organotypic hippocampal slice cultures. Format: cell-based, Wistar rat. The protocol:
as §1
(§2) Neuronal damage was assessed using ImageJ software running on a PC. Images being captured using a monochrome CCD camera and saved for offline analysis. Light transmission images were captured prior to the addition of drugs, and PI fluorescence images recorded at the end of the 24-hour recovery period. The area of the CA1 region was then determined from the transmission image. The area of PI fluorescence in the CA1 is measured using the threshold function on ImageJ, and neuronal damage expressed as the percentage of the CA1 in which PI fluorescence is detected above background (Pringle et al., 1997).
(§3) In this case the sodium selenate was made to 50 mM in SFM, then serially diluted to 25 mM, 10 mM and 1 mM, each of these used at 10 μL/mL to give final concentrations of 10 μM, 100 μM, 250 μM and 500 μM. Sodium selenite and selenomethionine as before. An experiment to assess the toxicity of sodium selenate at these higher concentrations was run in parallel with the OGD (Results FIG. 4).

The subject of data set [3] is cultured rat hippocampal slices. Description: Tissue culture toxicity screen in organotypic hippocampal slice cultures. As to the method: as §1, §2
A preliminary toxicity screen was carried out on the compounds to determine tissue culture exposure levels that would cause toxicity. […] Damage was measured after 24 hours and 48 hours.
as §3

In another data set the test system is PTZ induced seizures. Conditions: for Number of seizures: 30 minutes observation; for Number of seizures / Duration of seizure activity / Number of severe seizures / Latency to seizure onset: mean±SEM; for Latency to seizure onset: not significant vs vehicle. The protocol: All animal experiments were carried out according to the National Institute of Health (NIH) guidelines for the care and use of laboratory animals, and approved by the Ethical Committee of the National Laboratory Animal Center, Kuopio, Finland. Altogether 30 adult male Sprague-Dawley rats (Taconic, Denmark) weighing 200-240 g were used. Animals were housed at a standard temperature (22±1° C.) and in a light-controlled environment (lights on from 7 am to 8 pm) with ad libitum access to food and water.
Animals were grouped as follows: • 10 rats treated with vehicle (sterile water as drinking water). • 10 rats treated with sodium selenate anhydrous (120 microgram in 100 mL sterile water), p.o in drinking water for 7 days prior to PTZ injection. • 10 rats treated with sodium selenate anhydrous (1.2 milligram in 100 mL sterile water), p.o in drinking water for 7 days prior to PTZ injection. PTZ Induced Seizures
Pentylenetetrazol (PTZ) (60 mg/kg) is administered intraperitoneally (i.p., 2 mL/kg in saline) to male Sprague-Dawley rats.
Sodium selenate is administered p.o in drinking water for 7 days prior to PTZ injection. The rats have ad libitum access to water (normal daily consumption of water is 30 mL/rat/day).
The incidence of seizures (seizure and severe seizure), the latency for the first seizure appearance and the duration of seizure activity were used as indices of anticonvulsant effect. Seizure numbers were not counted if the animal died. […] Animals that died were assigned the maximum seizure duration of 30 minutes. […] Severe seizure was defined as a prolonged seizure involving stretching and twisting convulsions.
Values are presented as percentages and differences are considered to be statistically significant at the P<0.05 level. Statistical analysis was performed using StatsDirect software. Differences among groups were analyzed by 1-way-ANOVA followed by Dunnet's test (comparison to the control (=vehicle treated PTZ rats) group).

Where [4] appears, read: 100 μM, compound present 24 hours pre-, during 1 hour of and 24 hours post-ischaemia, vs OGD alone.
Where [5] appears, read: 120 μg in 100 mL drinking water p.o. 7 days prior to PTZ.
Setting [6] is: 1.2 mg in 100 mL drinking water p.o. 7 days prior to PTZ.

Like-named read-outs stand apart in the source and are kept apart here.

Regarding `O=C(O)c1ccc(C2=C3C=CC(=N3)C(c3ccc(C(=O)O)cc3)=c3ccc([nH]3)=C(c3ccc(C(=O)O)cc3)c3ccc([n-]3)C(c3ccc(C(=O)O)cc3)c3ccc2[n-]3)cc1.[Cl-].[Mn+3]` (stereo not drawn) [MnTBAP, Mn(III)tetrakis(4-benzoic acid)porphyrin chloride, reference compound], the “Neuronal damage (PI fluorescence in CA1) after hypoxia” value in data set [1] is reported as “prevented”. Besides, the “Neuronal damage (PI fluorescence in CA1) after OGD ischaemia” value in data set [2] (setting [4]) is recorded as “prevented”.

On to `O=[Se](O)O` [Sodium selenite, reference compound], for which, in data set [3] (serum free media, tested at 5 μM, 25 μM and 100 μM, damage measured after 24 hours and 48 hours), the “Concentration above which compound was toxic in tissue culture” value was “above 5 μM”.

With `O=[Se](=O)(O)O` [sodium selenate], in data set [1], the “Neuronal damage (PI fluorescence in CA1) after hypoxia” value is given as “Significant attenuation of damage”. Also, the “Toxicity in tissue culture in the absence of hypoxia” value in data set [3] (500 μM, run in parallel with the OGD experiment (FIG. 4)) is recorded as “neurotoxicity”. In addition, the Tissue culture toxicity entry in data set [3] (serum free media, any concentration tested up to 100 μM, 24 hours and 48 hours) was “not found to be toxic”. The “Neuronal damage (PI fluorescence in CA1) after OGD ischaemia” value in data set [2] (setting [4]) is recorded as “Significant attenuation of damage”; in data set [2] (250 μM, pre, during and post-ischaemia, vs OGD alone), “Significant attenuation of damage”; in data set [2] (500 μM, pre, during and post-ischaemia), “significant increase in toxicity”. Further, the figures for the Number of seizures in the data set on PTZ induced seizures (setting [5]) and with PTZ induced seizures (setting [6]) were 8.5±2.1 and 9.9±2.2, respectively. Moreover, the “Duration of seizure activity” value in the data set on PTZ induced seizures (setting [5]) is 770.9 ± 189.9 s; with PTZ induced seizures (setting [6]), 808.6 ± 126.1 s. For the same compound, the “Number of severe seizures” value is 0.8±0.1 in the data set with PTZ induced seizures (setting [5]) and 0.9±0.1 with PTZ induced seizures (setting [6]). Moreover, the figures for the “Latency to seizure onset” value in the data set on PTZ induced seizures (setting [5]) and with PTZ induced seizures (setting [6]) were 217.6 ± 117.6 s and 107.6 ± 26.9 s, respectively. The same compound showed a Mortality in the data set with PTZ induced seizures (120 μg in 100 mL drinking water p.o. for 7 days prior to PTZ 60 mg/kg i.p., 10 rats) of 1 animal.
